Some test systems named below: A498 renal; HCC-2998 colon; KM12 colon; M14 melanoma; NCI-H460 lung; OVCAR-4 ovarian; RXF 393 renal; SK-MEL-2 melanoma; SW-620 colon; UACC-62 melanoma.
Holding throughout (assay): inhibition of tumour cell growth, NCI panel, 48 h

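1) Cells in 96-well plates. 2) Compound, 48 h, 5 concentrations. 3) Linear interpolation between surrounding doses. 4) Unreached endpoint = highest concentration. Here, GI50 denotes the concentration required for 50% inhibition of growth. The concentration for full growth arrest is given as TGI.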 Some results are limits rather than exact numbers.

For `CCN(CCc1ccc(F)cc1)c1ccc(CO)c(Cl)c1`, the GI50 in the assay with A498 renal was 0.12 µM; with HCC-2998 colon, 12.6 µM; in the assay with KM12 colon it was 15 µM; in the assay with M14 melanoma, 13.8 µM; with NCI-H460 lung, 6.3 µM; with OVCAR-4 ovarian it was 2.23 µM. Also, the GI50 in the assay with RXF 393 renal is 4.72 µM; in the assay with SK-MEL-2 melanoma, 7.29 µM; in the assay with SW-620 colon it was 8.84 µM; with UACC-62 melanoma, 1.32 µM. In addition, the TGI in the assay on A498 renal was 0.268 µM; in the assay on HCC-2998 colon, 26.5 µM; in the assay with KM12 colon, 30 µM; with M14 melanoma, 28.7 µM; in the assay with NCI-H460 lung it was 21.6 µM; in the assay on OVCAR-4 ovarian, 15.3 µM. The TGI in the assay on RXF 393 renal was determined as 19.9 µM; with SK-MEL-2 melanoma, 21.1 µM; in the assay with SW-620 colon, 24.2 µM; in the assay with UACC-62 melanoma it was 8.41 µM.
For `Cc1cc(Cl)ccc1OCC(=O)Oc1c(Cl)c(Cl)c(Cl)c(Cl)c1Cl`, the TGI with A498 renal turned out to be 62.9 µM; in the assay with HCC-2998 colon, 48.9 µM; in the assay with KM12 colon, 52.4 µM; with M14 melanoma, 71.4 µM; in the assay on NCI-H460 lung, 51.9 µM; in the assay on OVCAR-4 ovarian it was 92.1 µM. The TGI in the assay on RXF 393 renal was 37.3 µM; in the assay on SK-MEL-2 melanoma, 67.7 µM; with SW-620 colon, more than 100 µM; with UACC-62 melanoma, 46.6 µM.
For the compound `CC(=O)[CH-]C(=O)c1ccccc1.CC(=O)[CH-]C(=O)c1ccccc1.[O-]c1ccc(O)cc1.[O-]c1ccc(O)cc1.[Ti+4]`, the GI50 with A498 renal was 18.4 µM; in the assay with HCC-2998 colon, 16.1 µM; in the assay with KM12 colon it was 15.3 µM; with M14 melanoma it was 15.6 µM; with NCI-H460 lung, 14.2 µM; with OVCAR-4 ovarian, 18.2 µM. Also, the GI50 is 6.64 µM with RXF 393 renal, 14.6 µM in the assay with SK-MEL-2 melanoma, 17 µM in the assay on SW-620 colon and 16.2 µM in the assay on UACC-62 melanoma. The TGI with A498 renal was found to be 37.3 µM; with HCC-2998 colon it was 33.6 µM; in the assay on KM12 colon, 33 µM; with M14 melanoma, 30.8 µM; in the assay with NCI-H460 lung it was 44.6 µM; in the assay on OVCAR-4 ovarian, 32.3 µM. Moreover, the TGI is 20.5 µM in the assay on RXF 393 renal, 28.2 µM with SK-MEL-2 melanoma, 31.6 µM in the assay with SW-620 colon and 31.3 µM in the assay with UACC-62 melanoma.
For the compound `CN1CCN(c2ccc(NC3=C(Cl)C(=O)c4ncccc4C3=O)cc2C(F)(F)F)CC1`, the GI50 is 11.3 µM in the assay on A498 renal; 7.51 µM with HCC-2998 colon; 14.4 µM in the assay on KM12 colon; 1.78 µM with M14 melanoma; 17.4 µM in the assay with NCI-H460 lung; 1.09 µM with OVCAR-4 ovarian. The GI50 is 1.52 µM in the assay with RXF 393 renal, 3.32 µM in the assay with SK-MEL-2 melanoma, 1.35 µM with SW-620 colon and 1.88 µM in the assay on UACC-62 melanoma. For the same compound, the TGI with A498 renal is 24.2 µM; in the assay on HCC-2998 colon, 20.8 µM; in the assay with KM12 colon, 30.1 µM; in the assay on M14 melanoma, 3.67 µM; in the assay with NCI-H460 lung, 34.8 µM; with OVCAR-4 ovarian it was 2.31 µM. Also, the TGI in the assay on RXF 393 renal was found to be 2.91 µM; with SK-MEL-2 melanoma, 8.79 µM; with SW-620 colon, 3.37 µM; in the assay with UACC-62 melanoma it was 3.81 µM.
`COc1ccc(OC)c(-c2cn3nc(-c4c[nH]c5ccc(Br)cc45)sc3n2)c1`: the GI50 with A498 renal was 10.2 µM; in the assay on HCC-2998 colon, 2.67 µM; with KM12 colon, 2.19 µM; in the assay on M14 melanoma, 2.1 µM; with NCI-H460 lung, 2.04 µM; in the assay with OVCAR-4 ovarian it was 1.8 µM. Also, the GI50 was 3.19 µM in the assay with RXF 393 renal, 3.33 µM with SK-MEL-2 melanoma, 2.26 µM in the assay with SW-620 colon and 3.15 µM in the assay on UACC-62 melanoma. Besides, the TGI in the assay on A498 renal is 24.6 µM; in the assay with HCC-2998 colon it was 7.75 µM; with KM12 colon it was 6.24 µM; in the assay with M14 melanoma, 4.75 µM; in the assay on NCI-H460 lung, 4.17 µM; in the assay with OVCAR-4 ovarian, 3.8 µM. For the same compound, the TGI turned out to be 8.82 µM in the assay on RXF 393 renal, 13.4 µM in the assay with SK-MEL-2 melanoma, 5.28 µM in the assay on SW-620 colon and 13.2 µM in the assay with UACC-62 melanoma.
Turning to `O=C(CN1C(=O)c2ccccc2C1=O)OC1C=CCCC1` (centres undefined), the TGI in the assay on A498 renal, in the assay with HCC-2998 colon, with KM12 colon, in the assay on M14 melanoma, in the assay with NCI-H460 lung and in the assay with OVCAR-4 ovarian was more than 100 µM throughout. For the same compound, the TGI in the assay with RXF 393 renal, in the assay on SK-MEL-2 melanoma, in the assay on SW-620 colon and in the assay on UACC-62 melanoma was more than 100 µM throughout.
Regarding `CC(C)(C)c1cc2c(OP(c3ccccc3)c3ccccc3)c(c1)Cc1cc(C(C)(C)C)cc(c1OP(c1ccccc1)c1ccccc1)Cc1cc(C(C)(C)C)cc(c1OP(c1ccccc1)c1ccccc1)Cc1cc(C(C)(C)C)cc(c1OP(c1ccccc1)c1ccccc1)C2`, the GI50 with A498 renal was more than 50 µM; with HCC-2998 colon, more than 50 µM; with KM12 colon, more than 50 µM; in the assay with M14 melanoma it was more than 50 µM; in the assay with NCI-H460 lung, more than 50 µM; in the assay on OVCAR-4 ovarian, 22 µM. Besides, the GI50 in the assay on SK-MEL-2 melanoma, in the assay on SW-620 colon and in the assay on UACC-62 melanoma was more than 50 µM in each case. Moreover, the TGI in the assay with A498 renal, with HCC-2998 colon, with KM12 colon, in the assay on M14 melanoma, in the assay with NCI-H460 lung and in the assay on OVCAR-4 ovarian was more than 50 µM throughout. Besides, the TGI in the assay on RXF 393 renal, in the assay with SK-MEL-2 melanoma, in the assay on SW-620 colon and in the assay with UACC-62 melanoma was more than 50 µM each time.
For the compound `COc1ccc2c3c([nH]c2c1[N+](=O)[O-])C(C)N(C(=O)/C=C/c1ccccc1)CC3` (centres undefined), the TGI in the assay on A498 renal was 8.31 µM; with HCC-2998 colon, more than 100 µM; in the assay with KM12 colon, more than 100 µM; with M14 melanoma it was more than 100 µM; in the assay on NCI-H460 lung, more than 100 µM; with OVCAR-4 ovarian, more than 100 µM. The TGI with RXF 393 renal is 24.1 µM; in the assay with SK-MEL-2 melanoma it was more than 100 µM; with SW-620 colon, more than 100 µM; in the assay with UACC-62 melanoma, 9.06 µM.
Consider `COc1cc(C)c(N(C)C(=O)CN(C)C)cc1Nc1nc(Nc2cccc(F)c2C(N)=O)c2cc[nH]c2n1`, for which the GI50 is more than 13.9 µM with A498 renal; more than 23.1 µM with HCC-2998 colon; more than 25 µM with KM12 colon; more than 25 µM in the assay on M14 melanoma; more than 23.2 µM in the assay on NCI-H460 lung; more than 25 µM with OVCAR-4 ovarian. Besides, the GI50 is 20.5 µM with RXF 393 renal, more than 25 µM with SK-MEL-2 melanoma, more than 22.4 µM in the assay on SW-620 colon and more than 25 µM in the assay on UACC-62 melanoma. Moreover, the TGI in the assay with A498 renal, in the assay on HCC-2998 colon, in the assay on KM12 colon, in the assay on M14 melanoma, in the assay with NCI-H460 lung and with OVCAR-4 ovarian was more than 25 µM in each case. In addition, the TGI with RXF 393 renal, in the assay with SK-MEL-2 melanoma, in the assay on SW-620 colon and in the assay on UACC-62 melanoma was more than 25 µM in each case.

The values above are taken from PubChem BioAssay (NCI).
